Results: patent US6599893B2, “Cephalosporin antibiotics and prodrugs thereof” (Essential Therapeutics, Inc., priority 2000, dated 2003)
In brackets after ≈: the same amount, converted by molar mass. Read-outs that look alike come from different tables or passages of the source.

Assays:
[1] = test system: Staphylococcus aureus ATCC 29213 (MSSA); experiment: Broth microdilution MIC, S. aureus ATCC 29213; type: cell-based; settings: Staphylococcus aureus ATCC 29213 (MSSA); for MIC: read-out: MIC S. a. 29213
Experimental: (§1) Compounds were evaluated for antimicrobial activity against a panel of bacterial strains using a broth microdilution assay performed as recommended by the NCCLS (NCCLS (National Committee for Clinical Laboratory Standards). 1993. Methods for dilution antimicrobial susceptibility tests for bacteria that grow aerobically. NCCLS Document M7-A3, 1993. In: NCCLS Antimicrobial Susceptibility Testing, 3rd Ed.)
(§2) The minimum inhibitory concentration (MIC) is defined as the lowest concentration of a compound that prevents the growth of the bacteria.

[2] = test system: Enterococcus faecalis ATCC 29212; experiment: Broth microdilution MIC, E. faecalis ATCC 29212; type: cell-based; settings: Enterococcus faecalis ATCC 29212; for MIC: ATCC29212, read-out: MIC E. f. 29212
Experimental: as §1, §2

S. aureus strain Smith = experiment: Experimental infection of mice, ED50; type: in vivo, Swiss-Webster mice; settings: 50% efficacious dose, S. aureus Smith, mice challenged intraperitoneally, compound subcutaneously at 0 and 2 h, total dose, 72 h survival
Experimental: Staphylococcus aureus strain Smith (ATCC 13709, penicillin-susceptible) or strain 76 (methicillin-resistant) was cultured overnight at 37° C. in brain-heart infusion broth (BHIB). The following morning, a portion of the culture was transferred to fresh BHIB and incubated for an additional 4-5 hours at 37° C. The cells were harvested by centrifugation, washed twice with PBS, and adjusted to the desired inoculum amount. The cell suspension was mixed with an equal volume of sterile 14% hog-gastric mucin (Comber K. R.; Osborne C. D.; Sutherland R.: Comparative effects of amoxicillin and ampicillin in the treatment of experimental mouse infections. Antimicrobial Agents and Chemotherapy 7(2):179-185, 1975). The inoculum was kept in an ice bath until used (preferably in less than one hour).
Male Swiss-Webster mice were challenged intraperitoneally with 0.5 mL of a bacterial suspension of S. aureus strain Smith (LD50). Test compounds were administered subcutaneously in 0.1 mL volumes immediately after inoculation and 2 hours later. […] The total dose associated with 50% survival (ED50) was determined using the probit method (Pasiello, A. P., J. M. Essigmann, and G. N. Wogan.: Rapid and accurate determination of median lethal dose (LD50) and its error with a small computer. J Toxicol. Environ. Health. 3:797-809, 1977).

[3] = test system: Staphylococcus aureus 76 (MRSA, β-lactamase producing); experiment: Broth microdilution MIC, S. aureus 76; type: cell-based; settings: Staphylococcus aureus 76 (MRSA, β-lactamase producing); for MIC: read-out: MIC S. a. 76
Experimental: as §1, §2

[4] = Human serum binding estimated from serum effect on MIC (HSB*); type: in vitro ADME
Excerpt: An estimate of human serum binding (HSB*) was obtained for some compounds using the MIC values against S. aureus ATCC 29213 determined in growth medium (GM) and in a 1:1 mixture of growth medium and human serum (GM+HS):
HSB*=(MICGM+HS−MICGM)/MICGM 100%

[5] = Human serum binding by ultrafiltration; type: in vitro ADME
Experimental: Binding of several representative compounds of this invention in pooled human serum was determined using ultrafiltration. Compounds were incubated in serum for 10 minutes at 37° C. in a shaking water bath. Serum ultrafiltrate was accomplished by centrifugation (Amicon Centrifree) for 20 minutes at 25° C. Compound content in the ultrafiltrate was quantified by HPLC. An ultrafilrate obtained by following the same procedure with no added compound was used as a standard.

[6] = test system: Enterococcus faecium ATCC 35667; experiment: Broth microdilution MIC, E. faecium ATCC 35667; type: cell-based; settings: Enterococcus faecium ATCC 35667; for MIC: ATCC35667, read-out: MIC E. f. 35667
Experimental: as §1, §2

[7] = test system: Staphylococcus aureus COL (MRSA, non-β-lactamase producing); experiment: Broth microdilution MIC, S. aureus COL; type: cell-based; settings: Staphylococcus aureus COL (MRSA, non-β-lactamase producing); for MIC: read-out: MIC S. a. COL
Experimental: as §1, §2

[8] = test system: Staphylococcus aureus Smith (MSSA); experiment: Broth microdilution MIC, S. aureus Smith; type: cell-based; settings: Staphylococcus aureus Smith (MSSA); for MIC: read-out: MIC S. a. Smith
Experimental: as §1, §2

[9] = MIC against S. aureus ATCC 29213 in growth medium vs 1:1 growth medium and human serum
[10] = pooled human serum, ultrafiltration, 10 minutes at 37° C.

MIC [1] | MIC [2] | MIC [3] | HSB*, human serum binding calculated using serum effect on MIC [4, 9] | HSB, human serum binding [5, 10] | MIC [6] | MIC [7] | MIC [8] | SMILES | MIC S. a. 29213 [1] | MIC E. f. 29212 [2] | ED50, mg/kg (95% C.I.) (S. aureus strain Smith) | MIC S. a. 76 [3] | HSB*, human serum binding calculated using serum effect on MIC [4] | HSB, human serum binding [5] | MIC E. f. 35667 [6] | MIC S. a. COL [7] | MIC S. a. Smith [8]
– | – | – | – | – | – | – | – | NC(=O)CSCc1cnccc1SC1=C(C(=O)O)N2C(=O)[C@@H](NC(=O)/C(=N\O)c3nc(N)sc3Cl)[C@H]2SC1 [Compound 22] | 0.5 µg/mL (≈ 0.812 µM) | 0.5 µg/mL (≈ 0.812 µM) | 1.15 (0.7-1.6) mg/kg | 4 µg/mL (≈ 6.49 µM) | 88% | 94% | 1 µg/mL (≈ 1.62 µM) | 4 µg/mL (≈ 6.49 µM) | 0.25 µg/mL (≈ 0.406 µM)
0.25 µg/mL (≈ 0.467 µM) | 0.25 µg/mL (≈ 0.467 µM) | 2 µg/mL (≈ 3.74 µM) | 94% | 90% | 1 µg/mL (≈ 1.87 µM) | 1 µg/mL (≈ 1.87 µM) | 0.25 µg/mL (≈ 0.467 µM) | Nc1nnc(SC2=C(C(=O)O)N3C(=O)[C@@H](NC(=O)C(=NO)c4nc(N)sc4Cl)C3SC2)s1 (stereo partly drawn) [Compound 36, (7R)-7-[2-(2-amino-5-chlorothiazol-4-yl)-2-hydroxyiminoacetylamino]-3-(5-amino-[1,3,4]thiadiazol-2-ylsulfanyl)-8-oxo-5-thia-1-aza-bicyclo[4.2.0]oct-2-ene-2-carboxylic acid] | – | – | – | – | – | – | – | – | –
0.25 µg/mL (≈ 0.498 µM) | 2 µg/mL (≈ 3.99 µM) | 4 µg/mL (≈ 7.98 µM) | 50% | 79% | 1 µg/mL (≈ 1.99 µM) | 4 µg/mL (≈ 7.98 µM) | 0.125 µg/mL (≈ 0.249 µM) | Nc1nc(C(=NO)C(=O)N[C@@H]2C(=O)N3C(C(=O)O)=C(Sc4nnc(N)s4)CSC23)ns1 (stereo partly drawn) [Compound 37, (7R)-7-[2-(5-Amino-[1,2,4]thiadiazol-3-yl)-2-hydroxyimino-acetylamino]-3-(5-amino-[1,3,4]thiadiazol-2-ylsulfanyl)-8-oxo-5-thia-1-aza-bicyclo[4.2.0]oct-2-ene-2-carboxylic acid] | – | – | – | – | – | – | – | – | –
0.25 µg/mL (≈ 0.497 µM) | 1 µg/mL (≈ 1.99 µM) | 8 µg/mL (≈ 15.9 µM) | 88% | 92% | 4 µg/mL (≈ 7.95 µM) | 8 µg/mL (≈ 15.9 µM) | 0.5 µg/mL (≈ 0.994 µM) | Nc1nc(C(=NO)C(=O)N[C@@H]2C(=O)N3C(C(=O)O)=C(Sc4nnc[nH]4)CSC23)c(Cl)s1 (stereo partly drawn) [Compound 40, (7R)-7-[2-(2-Amino-5-chlorothiazol-4-yl)-2-hydroxyimino-acetylamino]-8-oxo-3-(4H-[1,2,4]triazol-3-ylsulfanyl)-5-thia-1-aza-bicyclo[4.2.0]oct-2-ene-2-carboxylic acid] | – | – | – | – | – | – | – | – | –
0.125 µg/mL (≈ 0.24 µM) | 0.25 µg/mL (≈ 0.481 µM) | 1 µg/mL (≈ 1.92 µM) | 98% | 91% | 0.5 µg/mL (≈ 0.962 µM) | 1 µg/mL (≈ 1.92 µM) | 0.125 µg/mL (≈ 0.24 µM) | Nc1nc(C(=NO)C(=O)N[C@@H]2C(=O)N3C(C(=O)O)=C(Sc4nncs4)CSC23)c(Cl)s1 (stereo partly drawn) [Compound 41, (7R)-7-[2-(2-Amino-5-chlorothiazol-4-yl)-2-hydroxyiminoacetylamino]-8-oxo-3-([1,3,4]thiadiazol-2-ylsulfanyl)-5-thia-1-aza-bicyclo[4.2.0]oct-2-ene-2-carboxylic acid] | – | – | – | – | – | – | – | – | –
0.5 µg/mL (≈ 0.86 µM) | 1 µg/mL (≈ 1.72 µM) | 2 µg/mL (≈ 3.44 µM) | 75% | 65% | 4 µg/mL (≈ 6.88 µM) | 2 µg/mL (≈ 3.44 µM) | 0.25 µg/mL (≈ 0.43 µM) | Nc1nnc(SC2=C(C(=O)O)N3C(=O)[C@@H](NC(=O)C(=NOCCF)c4nc(N)sc4Cl)C3SC2)s1 (stereo partly drawn) [Compound 42, (7R)-7-[2-(2-Amino-5-chlorothiazol-4-yl)-2-(2-fluoroethoxyimino)-acetylamino]-3-(5-amino-[1,3,4]thiadiazol-2-ylsulfanyl)-8-oxo-5-thia-1-aza-bicyclo[4.2.0]oct-2-ene-2-carboxylic acid] | – | – | – | – | – | – | – | – | –
– | – | – | 67% | 84% | – | – | – | NCCSCc1cnccc1SC1=C(C(=O)O)N2C(=O)[C@@H](NC(=O)/C(=N\O)c3nc(N)sc3Cl)[C@H]2SC1 [RWJ 54428, reference compound] | 0.25 µg/mL (≈ 0.415 µM) | 0.06 µg/mL (≈ 0.0996 µM) | 1.0 (0.7-1.6) mg/kg | 1 µg/mL (≈ 1.66 µM) | – | – | 0.25 µg/mL (≈ 0.415 µM) | 0.5 µg/mL (≈ 0.83 µM) | 0.125 µg/mL (≈ 0.208 µM)
